Holding throughout (assay): 2D proliferation assay (CellTiter-Glo) with synergy analysis
(Cellular ATP, detected with luciferase, serves as a proxy for viable cell number.)

In test [1] the test system is H358 human non-small cell lung cancer (NSCLC) cells. The class given is cell-based. Conditions: for effect of doxycycline or minocycline on anti-tumor potency: 2D culture, 7 days, CellTiter-Glo; for synergy with antibiotics in the inhibition of tumor cell proliferation: with doxycycline or minocycline, H358, FIG. 3, Bliss, Loewe, HSA and ZIP analysis. The method, then: (§1) Anti-proliferative effects of an antibiotic agent such as doxycycline (e.g., 5 or 10 μM) or minocycline (e.g., 1.25 μM) in combination with VS-6766 (e.g., 40 nM) or defactinib (e.g., 1 μM) were tested in 2D culture in 3 different human tumor cell lines.
(§2) Human cancer cell lines were grown in 2D conditions. Briefly, cells were seeded in 100 μL of growth medium. After an overnight incubation (17-22 hours), cells were treated with VS-6766+/−minocycline or doxycycline for 7 days. Alternatively, cells were treated with defactinib+/−doxycycline for 7 days. Cell viability was measured using the cell viability CellTiter-Glo assay.
Raw data and metadata files were processed with a custom R-script for single agent and combination activity. Bliss, Loewe, Highest Single Agent (HSA) and ZIP synergy analysis were performed to generate a composite synergy score (e.g., see Malyutina A et al, “Drug combination sensitivity scoring facilitates the discovery of synergistic and efficacious drug combinations in cancer,” PLOS Computational Biology 15 (5): e1006752). Summary graphics and reports were saved for visualization and further analysis.
For example, consider that drug 1 at concentration x1 and drug 2 at concentration x2 were combined to produce the inhibition effect of yc, while their respective single drug effects were y1(x1) and y2(x2). The synergy score was calculated as the difference between yc and the expected effect ye if there is no synergy. Each synergy scoring takes a different model for ye: • 1. HSA: ye is the maximal single drug effect, defining
Dose-response matrices were used to assess anti-proliferative effects of the combination of VS-6766+/−minocycline or doxycycline, and the combination of defactinib+/−doxycycline. […] H358 human non-small cell lung cancer (NSCLC) cells were grown in 2D conditions. Cells were treated with VS-6766+/−minocycline or doxycycline for 7 days. Alternatively, cells were treated with defactinib+/−doxycycline for 7 days. Cell viability was measured using the cell viability CellTiter-Glo assay.
Synergy scores were calculated using a combination of 4 different methods (Bliss, Loewe, HSA and ZIP). Human cancer cell lines were run in a CTG proliferation assay. Raw data and metadata files were processed with a custom R-script for single agent and combination activity. Bliss, Loewe, Highest Single Agent (HSA) and ZIP synergy analysis were performed to generate a composite synergy score. The example used in this figure is VS-6766+doxycycline in H358 cells.
H358 human NSCLC cells were run in a CTG proliferation assay. Raw data and metadata files were processed with a custom R-script for single agent and combination activity. Bliss, Loewe, Highest Single Agent (HSA) and ZIP synergy analysis were performed to generate a composite synergy score. […]

The test system of another test is H2122 NSCLC. The class given is cell-based, human. Conditions: VS-6766+doxycycline, H2122, FIG. 4; Bliss, Loewe, HSA and ZIP analysis. The method, then: as §1, §2
(§3) Raw data and metadata files were processed with a custom R-script for single agent and combination activity. Bliss, Loewe, Highest Single Agent (HSA) and ZIP synergy analysis were performed to generate a composite synergy score (e.g., see Malyutina A et al, “Drug combination sensitivity scoring facilitates the discovery of synergistic and efficacious drug combinations in cancer,” PLOS Computational Biology 15 (5): e1006752). […]
(§4) For example, consider that drug 1 at concentration x1 and drug 2 at concentration x2 were combined to produce the inhibition effect of yc, while their respective single drug effects were y1(x1) and y2(x2). The synergy score was calculated as the difference between yc and the expected effect ye if there is no synergy. […]

The next test relates to TOV21G ovarian cancer. The class given is cell-based, human. To be noted: VS-6766+doxycycline, FIG. 4, Bliss, Loewe, HSA and ZIP analysis. The method, then: as §1, §2, §3, §4

`CNC(=O)c1ccc(Nc2ncc(C(F)(F)F)c(NCc3nccnc3N(C)S(C)(=O)=O)n2)cc1` [defactinib, reference compound]: in test [1], the “effect of doxycycline or minocycline on anti-tumor potency” value was “increased anti-tumor potency” and the “synergy with antibiotics in the inhibition of tumor cell proliferation” value is given as “synergistic”.

On to `CNS(=O)(=O)Nc1nccc(Cc2c(C)c3ccc(Oc4ncccn4)cc3oc2=O)c1F` [VS-6766], for which, in test [1], the “effect of doxycycline or minocycline on anti-tumor potency” value is on record as “increased anti-tumor potency”. The “synergy with antibiotics in the inhibition of tumor cell proliferation” value in test [1] was “synergistic”. The “synergy in the inhibition of tumor cell proliferation” value in the test with H2122 NSCLC and in the test on TOV21G ovarian cancer was “synergistic effect” each time.

Values taken from US20240382485A1, “METHODS OF TREATING ABNORMAL CELL GROWTH” (Verastem, Inc., priority 2021, published 2024).
